Test results reported in PMC9223764, “In Vitro Selection and Characterization of HIV-1 Variants with Increased Resistance to LP-40, Enfuvirtide-Based Lipopeptide Inhibitor” (International Journal of Molecular Sciences, 2022).
Where a SMILES comes first, the peptide text is derived from it.

Key:
Format in all cases: cell-based
[1] = system: HIV-1 NL4-3 pseudovirus (WT); conditions: Table 3; for IC50: WT NL4-3, TZM-bl cells, 48 h, luciferase, means, triplicate, repeated three times; for Fold change in IC50: WT NL4-3 reference
Protocol: (§1) The infectivity of HIV Env mutants and the inhibitory activities of membrane fusion inhibitors on mutants in TZM-bl cells were measured using a single-cycle infection assay as described previously. Briefly, the HIV pseudovirus was packed using an Env-coding plasmid, and pSG3ΔEnv was co-transfected into HEK293T cells. pSG3ΔEnv encodes an Env-defective, luciferase-expressing HIV-1 genome. After the pseudoviruses were harvested and filtrated, the amount of pseudoviruses was fixed via P24 antigen, and their infectivity was determined in TZM-bl cells. In order to measure the inhibitory activities of the inhibitors, inhibitors diluted serially 3-fold were mixed with an equal volume of pseudoviruses, and then 100 µL 1 × 10^5/mL TZM-bl cells were added to the mixture and incubated at 37 °C with 5% CO2 for 48 h. After that, TZM-bl cells were lysed using reporter lysis buffer, and IC50 values were calculated according to luciferase activity measured by luciferase assay reagents and a luminescence counter (Promega, Madison, WI, USA).

[2] = system: HIV-1 NL4-3 gp41 I37T pseudovirus; conditions: Table 3; for Fold change in IC50: I37T relative to WT NL4-3; for IC50: I37T, TZM-bl cells, 48 h, luciferase, means, triplicate, repeated three times
Protocol: (§2) Viral RNA was extracted from the supernatant, and, after reverse transcription, the cDNA was amplified using PCR. These amplified DNA were connected to the T-Easy vector and transformed to Trans 2-Blue Chemically Competent Cells. These sequences were determined via sequencing. The expression plasmids, which contained different HIV-1NL4-3 Env mutants, were constructed using DNA assembly (NEBuilder® HiFi DNA Assembly Master Mix). In brief, two primers were used to amplify Env, and the other two primers were used to amplify the vector fragment. The products of PCR were purified with a 20–25 bp overlap in the terminal of Env and the vector fragment Env and the vector fragment were added to the DNA assembly master mix at […] for 15 min and then transformed to Trans 2-Blue Chemically Competent Cells. Additionally, a single-point mutation was generated using double-stranded DNA templates and a selection of mutants with a restriction enzyme (DpnI) as described previously.
as §1

[3] = system: HIV-1 NL4-3 gp41 I69V pseudovirus; conditions: Table 3; for Fold change in IC50: I69V relative to WT NL4-3; for IC50: I69V, TZM-bl cells, 48 h, luciferase, means, triplicate, repeated three times
Protocol: as §2, §1

[4] = system: HIV-1 NL4-3 gp41 L33S pseudovirus; conditions: Table 3; for Fold change in IC50: L33S relative to WT NL4-3; for IC50: L33S, TZM-bl cells, 48 h, luciferase, means, triplicate, repeated three times
Protocol: as §2, §1

[5] = system: HIV-1 NL4-3 gp41 L33S/I37T pseudovirus; conditions: Table 3; for Fold change in IC50: L33S/I37T relative to WT NL4-3; for IC50: L33S/I37T, TZM-bl cells, 48 h, luciferase, means, triplicate, repeated three times
Protocol: (§3) We selected LP-40-induced drug resistance typical point mutations and combination mutation pseudoviruses to evaluate the current representative membrane fusion inhibitors.
as §1

[6] = system: HIV-1 NL4-3 gp41 L33S/V38A/N42T pseudovirus; conditions: Table 3; for Fold change in IC50: L33S/V38A/N42T relative to WT NL4-3; for IC50: L33S/V38A/N42T, TZM-bl cells, 48 h, luciferase, means, triplicate, repeated three times
Protocol: as §3, §1

[7] = system: HIV-1 NL4-3 gp41 NDQEEDYN pseudovirus; conditions: Table 3; for IC50: NDQEEDYN (E109N, N113D, E119Q, D121E, N125E, S129D, H132Y, S133N), TZM-bl cells, 48 h, luciferase, means, triplicate, repeated three times; for Fold change in IC50: NDQEEDYN relative to WT NL4-3
Protocol: as §3, §1

[8] = system: HIV-1 NL4-3 gp41 NDQEEDYN/L33S/I37T pseudovirus; conditions: Table 3; for Fold change in IC50: NDQEEDYN/L33S/I37T relative to WT NL4-3; for IC50: NDQEEDYN/L33S/I37T, TZM-bl cells, 48 h, luciferase, means, triplicate, repeated three times
Protocol: as §3, §1

[9] = system: HIV-1 NL4-3 gp41 NDQEEDYN/L33S/V38A/N42T pseudovirus; conditions: Table 3; for Fold change in IC50: NDQEEDYN/L33S/V38A/N42T relative to WT NL4-3; for IC50: NDQEEDYN/L33S/V38A/N42T, TZM-bl cells, 48 h, luciferase, means, triplicate, repeated three times
Protocol: as §3, §1

[10] = system: HIV-1 NL4-3 gp41 V38A/N42T pseudovirus; conditions: Table 3; for Fold change in IC50: V38A/N42T relative to WT NL4-3; for IC50: V38A/N42T, TZM-bl cells, 48 h, luciferase, means, triplicate, repeated three times
Protocol: as §3, §1

For `CC[C@H](C)[C@H](NC(=O)[C@H](CCC(=O)O)NC(=O)[C@H](CCCNC(=N)N)NC(=O)[C@H](CCC(=O)O)NC(=O)[C@H](Cc1c[nH]c2ccccc12)NC(=O)[C@@H](NC(=O)[C@H](CCC(=O)O)NC(=O)[C@H](Cc1c[nH]c2ccccc12)NC(=O)[C@H](CO)NC(C)=O)[C@@H](C)O)C(=O)N[C@@H](CCC(=O)O)C(=O)N[C@@H](CC(N)=O)C(=O)N[C@@H](Cc1ccc(O)cc1)C(=O)N[C@H](C(=O)N[C@@H](CCCNC(=N)N)C(=O)N[C@@H](CCC(N)=O)C(=O)N[C@H](C(=O)N[C@@H](Cc1ccc(O)cc1)C(=O)N[C@@H](CCCNC(=N)N)C(=O)N[C@H](C(=O)N[C@@H](CC(C)C)C(=O)N[C@@H](CCC(=O)O)C(=O)N[C@@H](CCC(=O)O)C(=O)N[C@@H](CO)C(=O)N[C@@H](CCC(N)=O)C(=O)N[C@@H](CCC(=O)O)C(=O)N[C@@H](CCC(N)=O)C(=O)N[C@@H](CCC(N)=O)C(=O)N[C@@H](CC(=O)O)C(=O)N[C@@H](CCCNC(=N)N)C(=O)N[C@@H](CC(N)=O)C(=O)N[C@@H](CCC(=O)O)C(=O)N[C@@H](CCCNC(=N)N)C(=O)N[C@@H](CC(=O)O)C(=O)N[C@@H](CC(C)C)C(=O)N[C@@H](CC(C)C)C(=O)N[C@@H](CCC(=O)O)C(N)=O)[C@@H](C)CC)[C@@H](C)CC)[C@@H](C)O` [SFT] (Ac-SWETWEREIENYTRQIYRILEESQEQQDRNERDLLE-NH2), the IC50 [1] was 1.56 nM, the “Fold change in IC50” value [1] was 1.00 fold and the “Fold change in IC50” value [2] was 7.21 fold. For the same molecule, the IC50 [2] was 11.2 nM, the “Fold change in IC50” value [3] was 1.07 fold and the IC50 [3] was 1.67 nM. The “Fold change in IC50” value [4] was 3.00 fold, the IC50 [4] was 4.67 nM and the “Fold change in IC50” value [5] was 14.72 fold. The IC50 [5] was 23 nM, the “Fold change in IC50” value [6] was 166.68 fold and the IC50 [6] was 260 nM. The IC50 [7] was 8.03 nM, the “Fold change in IC50” value [7] was 5.15 fold and the “Fold change in IC50” value [8] was 70.71 fold. For the same molecule, the IC50 [8] was 110 nM, the “Fold change in IC50” value [9] was 473.54 fold and the IC50 [9] was 739 nM. For the same molecule, the “Fold change in IC50” value [10] was 74.48 fold and the IC50 [10] was 116 nM.

With `CC[C@H](C)[C@H](NC(=O)[C@H](CCC(N)=O)NC(=O)[C@H](C)NC(=O)[C@H](CCC(N)=O)NC(=O)[C@H](CCC(=O)O)NC(=O)[C@H](CC(C)C)NC(=O)[C@H](CC(C)C)NC(=O)[C@H](C)NC(=O)[C@@H](NC(=O)[C@@H](NC(=O)[C@H](CCCCN)NC(=O)[C@H](CCC(N)=O)NC(=O)[C@H](CCC(=O)O)NC(=O)[C@H](Cc1c[nH]c2ccccc12)NC(=O)[C@H](CCC(=O)O)NC(=O)[C@H](CCC(N)=O)NC(=O)[C@H](Cc1c[nH]c2ccccc12)NC(C)=O)[C@@H](C)CC)[C@@H](C)O)C(=O)N[C@@H](CCC(N)=O)C(=O)N[C@@H](CCC(N)=O)C(=O)N[C@@H](CCC(=O)O)C(=O)N[C@@H](CCCCN)C(=O)N[C@@H](CC(N)=O)C(=O)N[C@@H](CCC(=O)O)C(=O)N[C@@H](Cc1ccc(O)cc1)C(=O)N[C@@H](CCC(=O)O)C(=O)N[C@@H](CC(C)C)C(=O)N[C@@H](CCC(N)=O)C(=O)N[C@@H](CCCCN)C(=O)N[C@@H](CC(C)C)C(=O)N[C@@H](CC(=O)O)C(=O)N[C@@H](CCCCN)C(=O)N[C@@H](Cc1c[nH]c2ccccc12)C(=O)N[C@@H](C)C(=O)N[C@@H](CO)C(=O)N[C@@H](CC(C)C)C(=O)N[C@@H](Cc1c[nH]c2ccccc12)C(=O)N[C@@H](CCC(=O)O)C(=O)N[C@@H](Cc1c[nH]c2ccccc12)C(=O)N[C@@H](Cc1ccccc1)C(N)=O` [T1249] the IC50 [1] was 1.14 nM, the “Fold change in IC50” value [1] was 1.00 fold and the “Fold change in IC50” value [2] was 1.21 fold. The IC50 [2] was 1.38 nM, the “Fold change in IC50” value [3] was 0.82 fold and the IC50 [3] was 0.93 nM. For the same molecule, the “Fold change in IC50” value [4] was 11.41 fold, the IC50 [4] was 13 nM and the IC50 [5] was 81.5 nM. The “Fold change in IC50” value [6] was 227.04 fold, the IC50 [6] was 259 nM and the IC50 [7] was 1.07 nM. The “Fold change in IC50” value [7] was 0.94 fold, the “Fold change in IC50” value [8] was 145.54 fold and the IC50 [8] was 166 nM. The “Fold change in IC50” value [9] was 301.12 fold, the IC50 [9] was 343 nM and the “Fold change in IC50” value [10] was 23.77 fold. The IC50 [10] was 27.1 nM.

`CC[C@H](C)[C@H](NC(=O)[C@H](C)NC(=O)[C@H](CCCNC(=N)N)NC(=O)[C@H](CC(=O)O)NC(=O)[C@H](Cc1c[nH]c2ccccc12)NC(=O)[C@H](C)NC(=O)[C@H](CCC(=O)O)NC(=O)[C@H](Cc1c[nH]c2ccccc12)NC(=O)[C@@H](NC(=O)[C@@H](NC(C)=O)[C@@H](C)O)[C@@H](C)O)C(=O)N[C@@H](C)C(=O)N[C@@H](CCC(=O)O)C(=O)N[C@@H](Cc1ccc(O)cc1)C(=O)N[C@@H](C)C(=O)N[C@@H](C)C(=O)N[C@@H](CCCNC(=N)N)C(=O)N[C@H](C(=O)N[C@@H](CCC(=O)O)C(=O)N[C@@H](C)C(=O)N[C@@H](CC(C)C)C(=O)N[C@H](C(=O)N[C@@H](CCCNC(=N)N)C(=O)N[C@@H](C)C(=O)N[C@@H](C)C(=O)N[C@@H](CCC(N)=O)C(=O)N[C@@H](CCC(=O)O)C(=O)N[C@@H](CCC(N)=O)C(=O)N[C@@H](CCC(N)=O)C(=O)N[C@@H](CCC(=O)O)C(=O)N[C@@H](CCCCN)C(=O)N[C@@H](CC(N)=O)C(=O)N[C@@H](CCC(=O)O)C(=O)N[C@@H](C)C(=O)N[C@@H](C)C(=O)N[C@@H](CC(C)C)C(=O)N[C@@H](CCCNC(=N)N)C(=O)N[C@@H](CCC(=O)O)C(=O)N[C@@H](CC(C)C)C(N)=O)[C@@H](C)CC)[C@@H](C)CC` [T2635] was tested, and the IC50 [1] was 0.73 nM, the “Fold change in IC50” value [1] was 1.00 fold and the “Fold change in IC50” value [2] was 1.33 fold. For the same molecule, the IC50 [2] was 0.97 nM, the “Fold change in IC50” value [3] was 1.04 fold and the IC50 [3] was 0.75 nM. The “Fold change in IC50” value [4] was 1.97 fold, the IC50 [4] was 1.43 nM and the “Fold change in IC50” value [5] was 2.07 fold. For the same molecule, the IC50 [5] was 1.51 nM, the “Fold change in IC50” value [6] was 1.78 fold and the IC50 [6] was 1.3 nM. The IC50 [7] was 1.94 nM, the “Fold change in IC50” value [7] was 2.67 fold and the “Fold change in IC50” value [8] was 7.49 fold. For the same molecule, the IC50 [8] was 5.44 nM, the “Fold change in IC50” value [9] was 7.85 fold and the IC50 [9] was 5.73 nM. For the same molecule, the “Fold change in IC50” value [10] was 0.77 fold and the IC50 [10] was 0.56 nM.
